Source: patent US20260256792A1, “TREATMENT OF CHRONIC SPONTANEOUS URTICARIA BY ADMINISTERING (R)-2-[3-[4-AMINO-3-(2-FLUORO-4-PHENOXY-PHENYL)PYRAZOLO[3,4-D]PYRIMIDIN-1-YL]PIPERIDINE-1-CARBONYL]-4-METHYL-4-[4-(OXETAN-3-YL)PIPERAZIN-1-YL]PENT-2-ENENITRILE” (priority 2023, published 2026)

System: moderate-to-severe chronic spontaneous urticaria (CSU)
Assay: Phase 2 CSU study: Patient Global Impression of Severity (PGIS)
Type: in vivo, human
Conditions: for PGIS Change from baseline Mean (SD) / PGIS Change from baseline Median / PGIS Median / PGIS Percent change from baseline Mean (SD) / PGIS Percent change from baseline Median / PGIS category Mild, patients / PGIS category Moderate, patients / PGIS category None, patients / PGIS category Severe, patients: omalizumab-naïve population; for PGIS % Change difference for rilzabrutinib vs. placebo LS Mean (95% CI) / PGIS % Change from baseline LS Mean (SE) / PGIS Change difference for rilzabrutinib vs. placebo LS Mean (95% CI) / PGIS Change from baseline LS Mean (SE): omalizumab-naïve, ANCOVA
Source text: The study comprises a 12 week, randomized, double-blind, placebo-controlled, multi-center, dose-ranging efficacy and safety phase, followed by a 40 week open label extension (OLE) phase (see FIG. 1).
The study consists of three phases and an optional OLE phase.
The PGIS is a 1-item measure that asks participants to provide a self-assessment of their overall CSU severity for the past week on a 4 point scale. Response choices are: “None”, “Mild”, “Moderate” and “Severe”. The PGIC is a 1-item measure that asks the participant to provide a self-assessment of overall change in their CSU since the participant started taking the study medication on a 7-point scale. The response options range from “Very Much Better” to “Very Much Worse.” Patients were to complete questionnaires for the 2 items during their site visit.

SMILES: CC(C)(C=C(C#N)C(=O)N1CCC[C@@H](n2nc(-c3ccc(Oc4ccccc4)cc3F)c3c(N)ncnc32)C1)N1CCN(C2COC2)CC1 [rilzabrutinib, (R)-2-[3-[4-amino-3-(2-fluoro-4-phenoxy-phenyl)pyrazolo[3,4-d]pyrimidin-1-yl]piperidine-1-carbonyl]-4-methyl-4-[4-(oxetan-3-yl)piperazin-1-yl]pent-2-enenitrile]
- quality of life as measured by PGIS (400 mg TID): improvement
- PGIS Change from baseline Mean (SD) (Week 2, 400 mg BID): −0.65
- PGIS Change from baseline Median (Week 2, 400 mg BID): 0.00
- PGIS Median (Week 2, 400 mg BID): 2.00
- PGIS Percent change from baseline Mean (SD) (Week 2, 400 mg BID): −23.12%
- PGIS Percent change from baseline Median (Week 2, 400 mg BID): 0.00%
- PGIS category Mild, patients (Week 2, 400 mg BID): 8 (25.8)
- PGIS category Moderate, patients (Week 2, 400 mg BID): 14 (45.2)
- PGIS category None, patients (Week 2, 400 mg BID): 5 (16.1)
- PGIS category Severe, patients (Week 2, 400 mg BID): 4 (12.9)
- PGIS % Change difference for rilzabrutinib vs. placebo LS Mean (95% CI) (Week 2, 400 mg BID): −7.56 (−24.17, 9.05) %
- PGIS % Change from baseline LS Mean (SE) (Week 2, 400 mg BID): −26.23 (6.28) %
- PGIS Change difference for rilzabrutinib vs. placebo LS Mean (95% CI) (Week 2, 400 mg BID): −0.26 (−0.63, 0.11)
- PGIS Change from baseline LS Mean (SE) (Week 2, 400 mg BID): −0.76 (0.14)
- PGIS Change from baseline Mean (SD) (Week 2, 400 mg QPM): −0.48
- PGIS Change from baseline Median (Week 2, 400 mg QPM): 0.00
- PGIS Median (Week 2, 400 mg QPM): 2.00
- PGIS Percent change from baseline Mean (SD) (Week 2, 400 mg QPM): −17.68%
- PGIS Percent change from baseline Median (Week 2, 400 mg QPM): 0.00%
- PGIS category Mild, patients (Week 2, 400 mg QPM): 8 (24.2)
- PGIS category Moderate, patients (Week 2, 400 mg QPM): 17 (51.5)
- PGIS category None, patients (Week 2, 400 mg QPM): 0
- PGIS category Severe, patients (Week 2, 400 mg QPM): 8 (24.2)
- PGIS % Change difference for rilzabrutinib vs. placebo LS Mean (95% CI) (Week 2, 400 mg QPM): 0.86 (−15.86, 17.59) %
- PGIS % Change from baseline LS Mean (SE) (Week 2, 400 mg QPM): −17.80 (6.05) %
- PGIS Change difference for rilzabrutinib vs. placebo LS Mean (95% CI) (Week 2, 400 mg QPM): 0.03 (−0.34, 0.41)
- PGIS Change from baseline LS Mean (SE) (Week 2, 400 mg QPM): −0.47 (0.14)
- PGIS Change from baseline Mean (SD) (Week 2, 400 mg TID): −0.94
- PGIS Change from baseline Median (Week 2, 400 mg TID): 1.00
- PGIS Median (Week 2, 400 mg TID): 1.00
- PGIS Percent change from baseline Mean (SD) (Week 2, 400 mg TID): −41.92%
- PGIS Percent change from baseline Median (Week 2, 400 mg TID): −50.00%
- PGIS category Mild, patients (Week 2, 400 mg TID): 17 (50.0)
- PGIS category Moderate, patients (Week 2, 400 mg TID): 9 (26.5)
- PGIS category None, patients (Week 2, 400 mg TID): 4 (11.8)
- PGIS category Severe, patients (Week 2, 400 mg TID): 4 (11.8)
- PGIS % Change difference for rilzabrutinib vs. placebo LS Mean (95% CI) (Week 2, 400 mg TID): −22.00 (−38.77, −5.22) %
- PGIS % Change from baseline LS Mean (SE) (Week 2, 400 mg TID): −40.66 (6.06) %
- PGIS Change difference for rilzabrutinib vs. placebo LS Mean (95% CI) (Week 2, 400 mg TID): −0.46 (−0.83, −0.09)
- PGIS Change from baseline LS Mean (SE) (Week 2, 400 mg TID): −0.96 (0.13)
- PGIS Change from baseline Mean (SD) (Week 4, 400 mg BID): −0.70
- PGIS Change from baseline Median (Week 4, 400 mg BID): 0.00
- PGIS Median (Week 4, 400 mg BID): 2.00
- PGIS Percent change from baseline Mean (SD) (Week 4, 400 mg BID): −27.78%
- PGIS Percent change from baseline Median (Week 4, 400 mg BID): 0.00%
- PGIS category Mild, patients (Week 4, 400 mg BID): 10 (30.3)
- PGIS category Moderate, patients (Week 4, 400 mg BID): 15 (45.5)
- PGIS category None, patients (Week 4, 400 mg BID): 5 (15.2)
- PGIS category Severe, patients (Week 4, 400 mg BID): 3 (9.1)
- PGIS % Change difference for rilzabrutinib vs. placebo LS Mean (95% CI) (Week 4, 400 mg BID): −1.31 (−17.26, 14.65) %
- PGIS % Change from baseline LS Mean (SE) (Week 4, 400 mg BID): −29.83 (5.99) %
- PGIS Change difference for rilzabrutinib vs. placebo LS Mean (95% CI) (Week 4, 400 mg BID): −0.12 (−0.48, 0.25)
- PGIS Change from baseline LS Mean (SE) (Week 4, 400 mg BID): −0.81 (0.13)
- PGIS Change from baseline Mean (SD) (Week 4, 400 mg QPM): −0.65
- PGIS Change from baseline Median (Week 4, 400 mg QPM): −0.50
- PGIS Median (Week 4, 400 mg QPM): 2.00
- PGIS Percent change from baseline Mean (SD) (Week 4, 400 mg QPM): −25.49%
- PGIS Percent change from baseline Median (Week 4, 400 mg QPM): −16.67%
- PGIS category Mild, patients (Week 4, 400 mg QPM): 10 (29.4)
- PGIS category Moderate, patients (Week 4, 400 mg QPM): 15 (44.1)
- PGIS category None, patients (Week 4, 400 mg QPM): 1 (2.9)
- PGIS category Severe, patients (Week 4, 400 mg QPM): 8 (23.5)
- PGIS % Change difference for rilzabrutinib vs. placebo LS Mean (95% CI) (Week 4, 400 mg QPM): 3.06 (−12.83, 18.95) %
- PGIS % Change from baseline LS Mean (SE) (Week 4, 400 mg QPM): −25.46 (5.77) %
- PGIS Change difference for rilzabrutinib vs. placebo LS Mean (95% CI) (Week 4, 400 mg QPM): 0.09 (−0.27, 0.44)
- PGIS Change from baseline LS Mean (SE) (Week 4, 400 mg QPM): −0.61 (0.13)
- PGIS Change from baseline Mean (SD) (Week 4, 400 mg TID): −1.07
- PGIS Change from baseline Median (Week 4, 400 mg TID): 1.00
- PGIS Median (Week 4, 400 mg TID): 1.00
- PGIS Percent change from baseline Mean (SD) (Week 4, 400 mg TID): −43.10%
- PGIS Percent change from baseline Median (Week 4, 400 mg TID): −50.00%
- PGIS category Mild, patients (Week 4, 400 mg TID): 15 (51.7)
- PGIS category Moderate, patients (Week 4, 400 mg TID): 9 (31.0)
- PGIS category None, patients (Week 4, 400 mg TID): 3 (10.3)
- PGIS category Severe, patients (Week 4, 400 mg TID): 2 (6.9)
- PGIS % Change from baseline LS Mean (SE) (Week 4, 400 mg TID): −41.04 (6.24) %
- PGIS Change difference for rilzabrutinib vs. placebo LS Mean (95% CI) (Week 4, 400 mg TID): −0.27 (−0.62, 0.09)
